Experiment: Inhibition of virion associated RT activity relative to untreated, infected control in cord blood mononuclear cells (CBMC) infected with HIV -1 TC354 strain

Row | SMILES | IC50 [nM]
1 | CC[C@@H](C)[C@@H]1NC(=O)[C@@H](NC[C@@H](O)[C@H](Cc2ccccc2)NC(=O)[C@@H](NC(=O)c2ccc3ccccc3n2)C(C)C)Cc2ccc(cc2)OCCCNC1=O | 95
2 | O=C1N(Cc2ccc(CO)cc2)[C@H](Cc2ccccc2)[C@H](O)[C@@H](O)[C@@H](Cc2ccccc2)N1Cc1ccc(CO)cc1 [(4R,5S,6S,7R)-4,7-dibenzyl-5,6-dihydroxy-1,3-bis({[4-(hydroxymethyl)phenyl]methyl})-1,3-diazepan-2-one] | 110
